# Results from ChEMBL document CHEMBL1151070 (Bioorg Med Chem Lett, 1995).
# Tests used:
# [1] = biological target: T1, Protein kinase C beta type (Homo sapiens, UniProt P05771); assay: Inhibition of human Protein kinase C beta 1
# [2] = biological target: Protein kinase C delta type (Homo sapiens, UniProt Q05655); assay: Inhibition of human Protein kinase C delta
# [3] = biological target: T1, Protein kinase C beta type; assay: Inhibition of human Protein kinase C beta 2
# [4] = biological target: Protein kinase C alpha type (Homo sapiens, UniProt P17252); assay: Inhibition of human Protein kinase C alpha
# [5] = biological target: T2, Protein kinase C epsilon type (Homo sapiens, UniProt Q02156); assay: Inhibition of human Protein kinase C epsilon
# T2 sequence (Q02156 whole entry): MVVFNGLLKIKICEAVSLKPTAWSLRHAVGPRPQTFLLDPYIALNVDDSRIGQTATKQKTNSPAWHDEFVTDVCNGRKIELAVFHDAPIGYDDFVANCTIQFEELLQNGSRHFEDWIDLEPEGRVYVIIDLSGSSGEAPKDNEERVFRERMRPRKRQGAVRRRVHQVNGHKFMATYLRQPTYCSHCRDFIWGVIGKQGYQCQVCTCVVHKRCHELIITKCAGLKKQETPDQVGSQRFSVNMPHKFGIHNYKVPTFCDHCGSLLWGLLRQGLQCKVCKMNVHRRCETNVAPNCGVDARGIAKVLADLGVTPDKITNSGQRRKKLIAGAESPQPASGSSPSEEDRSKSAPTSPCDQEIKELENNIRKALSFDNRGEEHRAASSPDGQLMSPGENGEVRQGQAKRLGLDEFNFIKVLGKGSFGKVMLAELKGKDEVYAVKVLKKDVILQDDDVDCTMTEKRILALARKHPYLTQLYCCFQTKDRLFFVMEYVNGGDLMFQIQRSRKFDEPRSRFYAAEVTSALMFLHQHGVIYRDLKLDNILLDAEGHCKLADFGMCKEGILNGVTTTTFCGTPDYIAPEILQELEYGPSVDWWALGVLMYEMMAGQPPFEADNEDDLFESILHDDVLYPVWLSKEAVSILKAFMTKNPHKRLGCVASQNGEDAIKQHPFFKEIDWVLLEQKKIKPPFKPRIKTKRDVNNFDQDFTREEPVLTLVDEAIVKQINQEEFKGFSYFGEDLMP
# [6] = biological target: Protein kinase C eta type (Homo sapiens, UniProt P24723); assay: Inhibition of human Protein Kinase C eta
# [7] = biological target: Protein kinase C gamma type (Homo sapiens, UniProt P05129); assay: Inhibition of human Protein kinase C gamma
# [8] = biological target: T3, Protein kinase C zeta type (Homo sapiens, UniProt Q05513); assay: Inhibition of Protein kinase C zeta
# T3 sequence (Q05513 whole entry): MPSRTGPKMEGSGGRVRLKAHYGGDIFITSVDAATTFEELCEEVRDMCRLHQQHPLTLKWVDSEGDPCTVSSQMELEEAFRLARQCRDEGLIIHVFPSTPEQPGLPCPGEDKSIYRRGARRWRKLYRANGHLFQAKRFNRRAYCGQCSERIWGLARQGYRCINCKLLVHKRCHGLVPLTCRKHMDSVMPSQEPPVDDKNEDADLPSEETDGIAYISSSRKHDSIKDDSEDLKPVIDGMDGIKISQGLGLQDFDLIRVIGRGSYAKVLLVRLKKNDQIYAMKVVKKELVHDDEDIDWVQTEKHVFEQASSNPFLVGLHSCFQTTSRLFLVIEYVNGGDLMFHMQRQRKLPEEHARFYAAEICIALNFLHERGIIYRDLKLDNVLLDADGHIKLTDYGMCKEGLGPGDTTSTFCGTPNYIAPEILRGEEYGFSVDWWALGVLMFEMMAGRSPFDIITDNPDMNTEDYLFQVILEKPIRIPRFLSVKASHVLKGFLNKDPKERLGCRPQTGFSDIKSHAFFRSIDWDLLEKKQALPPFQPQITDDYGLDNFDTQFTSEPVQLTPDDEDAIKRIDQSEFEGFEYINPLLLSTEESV
# T1 sequence (P05771 whole entry): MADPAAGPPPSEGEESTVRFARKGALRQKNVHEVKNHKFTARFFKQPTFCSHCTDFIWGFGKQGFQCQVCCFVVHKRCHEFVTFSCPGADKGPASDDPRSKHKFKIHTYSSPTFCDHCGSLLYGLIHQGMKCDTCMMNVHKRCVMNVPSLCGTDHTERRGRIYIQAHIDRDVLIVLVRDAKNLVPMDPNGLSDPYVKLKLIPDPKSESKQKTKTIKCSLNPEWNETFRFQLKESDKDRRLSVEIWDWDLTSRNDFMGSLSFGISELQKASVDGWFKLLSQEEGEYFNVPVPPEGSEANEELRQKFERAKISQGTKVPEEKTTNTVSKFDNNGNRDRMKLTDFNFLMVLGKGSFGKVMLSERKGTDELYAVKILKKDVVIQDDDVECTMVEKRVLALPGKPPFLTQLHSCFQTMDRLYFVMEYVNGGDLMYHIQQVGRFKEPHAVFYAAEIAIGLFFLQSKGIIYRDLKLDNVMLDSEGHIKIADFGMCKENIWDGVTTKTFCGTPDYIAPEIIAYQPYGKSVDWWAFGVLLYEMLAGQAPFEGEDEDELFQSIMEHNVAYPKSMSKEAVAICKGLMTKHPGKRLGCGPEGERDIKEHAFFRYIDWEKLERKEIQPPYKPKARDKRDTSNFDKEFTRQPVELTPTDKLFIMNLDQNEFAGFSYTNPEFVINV
# Protein kinase C delta type, sequence (Q05655 whole entry): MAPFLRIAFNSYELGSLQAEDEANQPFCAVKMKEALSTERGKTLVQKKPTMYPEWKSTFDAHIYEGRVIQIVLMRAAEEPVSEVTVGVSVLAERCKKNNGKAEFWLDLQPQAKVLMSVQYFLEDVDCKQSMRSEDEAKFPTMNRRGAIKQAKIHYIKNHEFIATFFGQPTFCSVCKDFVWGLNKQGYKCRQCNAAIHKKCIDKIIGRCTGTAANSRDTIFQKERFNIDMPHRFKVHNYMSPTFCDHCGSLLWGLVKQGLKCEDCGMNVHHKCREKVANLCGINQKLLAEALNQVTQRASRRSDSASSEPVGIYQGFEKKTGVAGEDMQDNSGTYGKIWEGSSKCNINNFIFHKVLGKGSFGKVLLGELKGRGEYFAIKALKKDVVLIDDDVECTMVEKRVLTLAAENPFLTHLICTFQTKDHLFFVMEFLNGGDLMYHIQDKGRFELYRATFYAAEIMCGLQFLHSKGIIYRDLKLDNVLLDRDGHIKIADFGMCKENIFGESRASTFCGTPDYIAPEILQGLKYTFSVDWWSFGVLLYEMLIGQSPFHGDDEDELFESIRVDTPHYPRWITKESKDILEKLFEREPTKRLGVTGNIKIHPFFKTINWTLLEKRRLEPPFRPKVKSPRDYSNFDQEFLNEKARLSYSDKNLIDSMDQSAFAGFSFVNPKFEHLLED
# Protein kinase C eta type, sequence (P24723 whole entry): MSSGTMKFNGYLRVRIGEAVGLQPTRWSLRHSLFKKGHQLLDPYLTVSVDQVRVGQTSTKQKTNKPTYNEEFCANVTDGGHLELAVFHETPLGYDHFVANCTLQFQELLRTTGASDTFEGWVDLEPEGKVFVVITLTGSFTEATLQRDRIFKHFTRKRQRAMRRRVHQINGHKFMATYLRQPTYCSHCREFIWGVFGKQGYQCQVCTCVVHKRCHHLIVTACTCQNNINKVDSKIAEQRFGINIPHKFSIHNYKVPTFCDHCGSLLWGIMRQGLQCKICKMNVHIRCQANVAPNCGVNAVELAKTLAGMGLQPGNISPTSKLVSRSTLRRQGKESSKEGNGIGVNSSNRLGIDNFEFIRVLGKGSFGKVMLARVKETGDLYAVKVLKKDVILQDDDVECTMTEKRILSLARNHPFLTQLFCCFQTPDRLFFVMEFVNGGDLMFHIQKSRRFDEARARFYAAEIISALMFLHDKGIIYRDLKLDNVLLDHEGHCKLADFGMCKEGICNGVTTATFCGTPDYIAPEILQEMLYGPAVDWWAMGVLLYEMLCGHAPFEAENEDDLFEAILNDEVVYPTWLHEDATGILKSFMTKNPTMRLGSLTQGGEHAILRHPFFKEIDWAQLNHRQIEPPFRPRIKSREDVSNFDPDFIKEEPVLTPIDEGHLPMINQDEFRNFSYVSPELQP
SMILES,IC50 [1] [nM],IC50 [2] [nM],IC50 [3] [nM],IC50 [4] [nM],IC50 [5] [nM],IC50 [6] [nM],IC50 [7] [nM],IC50 [8] [nM]
O=C(N[C@H]1C[C@H](CO)C[C@H]1OC(=O)c1cc(O)c(C(=O)c2c(O)cccc2C(=O)O)c(O)c1)c1ccc(O)cc1,4,4,3,10,160,2,5,–
N[C@@H]1C[C@H](NC(=O)c2ccc(O)cc2)[C@H](OC(=O)c2cc(O)c(C(=O)c3c(O)cccc3C(=O)O)c(O)c2)C1,4,5,2,20,10,2,5,1200
NC[C@H]1C[C@H](NC(=O)c2ccc(O)cc2)[C@H](OC(=O)c2cc(O)c(C(=O)c3c(O)cccc3C(=O)O)c(O)c2)C1,4,6,4,20,30,3,5,2800
O=C(N[C@H]1C[C@@H](CO)C[C@H]1OC(=O)c1cc(O)c(C(=O)c2c(O)cccc2C(=O)O)c(O)c1)c1ccc(O)cc1,60,20,20,80,260,20,45,–
NC[C@@H]1C[C@H](NC(=O)c2ccc(O)cc2)[C@H](OC(=O)c2cc(O)c(C(=O)c3c(O)cccc3C(=O)O)c(O)c2)C1,5,20,5,20,30,3,10,3100
O=C(N[C@H]1C[C@H](O)C[C@H]1OC(=O)c1cc(O)c(C(=O)c2c(O)cccc2C(=O)O)c(O)c1)c1ccc(O)cc1,20,6,20,50,150,4,30,–
O=C(N[C@@H]1CNCCC[C@H]1OC(=O)c1cc(O)c(C(=O)c2c(O)cccc2C(=O)O)c(O)c1)c1ccc(O)cc1 (racemic) [BALANOL],–,30,40,70,–,–,–,–
"O=C(N[C@H]1C[C@@H](O)C[C@H]1OC(=O)c1cc(O)c(C(=O)c2c(O)cccc2C(=O)O)c(O)c1)c1ccc(O)cc1.O=C(N[C@H]1C[C@H](O)C[C@H]1OC(=O)c1cc(O)c(C(=O)c2c(O)cccc2C(=O)O)c(O)c1)c1ccc(O)cc1 (single isomer, unassigned)",20,5,10,40,100,3,20,–
